The values below come from US20090252013A1, “HYDRAZIDE CHELATE COMPLEX COMPOUND, OPTICAL RECORDING MEDIUM USING THE COMPOUND AND RECORDING METHOD THEREOF” (Mitsubishi Chemical Corporation, priority 2006, published 2009).

Data set [1] can be described thus: Solubility test in coating solvent (2,2,3,3-tetrafluoropropanol). It counts as physicochemical. The note with it: 20° C., result in words. On the procedure:
The dissolution is determined by whether or not residual crystals of the compound remain in the solvent when the compound and TFP are mixed with a predetermined concentration.
Then, the solution was dropped to filter paper (“No. 5C” quantitative filter paper manufactured by Toyo Roshi Kaisha), and dried at room temperature for 24 hours. It was visually observed whether or not crystal residues of undissolved components were present on the filter paper.

Data set [2] can be described thus: Light fastness test (xenon lamp) of dye recording layer. It counts as physicochemical. The note with it: xenon lamp 0.55 W/m^2, 40 hours, 58° C., humidity 50%, absorbance at absorption maximum. The procedure:
First, a solution containing a hydrazide chelate complex compound is applied over a substrate such that the film thickness after drying is about 50 nm, followed by drying, thus obtaining a layer containing the hydrazide chelate complex compound. The layer containing the resulting dye is irradiated with a xenon lamp (intensity 0.55 W/m^2) for a predetermined period of time under conditions at a temperature of 58° C. and a humidity of 50%. The absorbances at the absorption maximum wavelength before and after the irradiation are compared to obtain the dye residual ratio.
The resulting compound (A-6) was dissolved in 2,2,3,3-tetrafluoropropanol at a concentration of 1.0% by weight, and minute foreign particles were removed by filtration. Then, the resulting solution was dropped to an injection-molded polycarbonate substrate with a diameter of 120 mm and a thickness of 1.2 mm and coating was performed by spin coating (4,900 rpm), followed by drying at 80° C. for 30 minutes. […]
Under the conditions of temperature 58° C. and humidity 50%, a recording layer was irradiated with a xenon lamp at an irradiation intensity of 0.55 W/m^2 for 40 hours. Then, the dye residual ratio in the recording layer was determined on the basis of the absorbances before and after irradiation at the absorption maximum wavelength.

As for `CN1C(=CC=[N+]2N=C(c3ccccc3)[O][Cu-2]23[O]C(c2ccccc2)=N[N+]3=CC=C2N(C)c3ccccc3C2(C)C)C(C)(C)c2ccccc21` (centres unmarked) [Compound A-2], in data set [1], the “solubility in a coating solvent at a concentration of 0.7% by weight” value (“solubility … of 0.7% by weight” below) is given as “completely dissolved” and the “solubility in a coating solvent at a concentration of 1.0% by weight” value (from here on “solubility … of 1.0% by weight”) is “the amount of insolubles was slight”.
On to `CCOC(=O)CC1=N[N+](=CC=C2N(C)c3ccccc3C2(C)C)[Co-2]2([O]1)[O]C(CC(=O)OCC)=N[N+]2=CC=C1N(C)c2ccccc2C1(C)C` (centres unmarked) [Compound A-6], for which, in data set [1], the “solubility … of 0.7% by weight” value is given as “completely dissolved” and the “solubility … of 1.0% by weight” value is on record as “completely dissolved”. Besides, the “dye residual ratio (after 40-hour light fastness test)” value in data set [2] stood at 90%.
`CCOC(=O)CC1=N[N+](=CC=C2N(CC)c3ccccc3C2(C)Cc2ccccc2)[Co-2]2([O]1)[O]C(CC(=O)OCC)=N[N+]2=CC=C1N(CC)c2ccccc2C1(C)Cc1ccccc1` (centres unmarked) [Compound A-11]: in data set [1], the “solubility … of 0.7% by weight” value is listed as “completely dissolved” and the “solubility … of 1.0% by weight” value is “completely dissolved”. Further, the “dye residual ratio (after 40-hour light fastness test)” value in data set [2] came to 91%.
Consider `CCN1C(=CC=[N+]2N=C(c3ccccc3)[O][Co-2]23[O]C(c2ccccc2)=N[N+]3=CC=C2N(CC)c3ccc(OC)cc3C2(C)C)C(C)(C)c2cc(OC)ccc21` (centres unmarked) [Compound A-86], for which, in data set [1], the “solubility … of 0.7% by weight” value was “completely dissolved” and the “solubility … of 1.0% by weight” value was “completely dissolved”.
On to `CCN1C(=CC=[N+]2N=C(c3cccc(OC)c3)[O][Co-2]23[O]C(c2cccc(OC)c2)=N[N+]3=CC=C2N(CC)c3ccc(OC)cc3C2(C)C)C(C)(C)c2cc(OC)ccc21` (centres unmarked) [Compound A-87], for which, in data set [1], the “solubility … of 0.7% by weight” value was “completely dissolved” and the “solubility … of 1.0% by weight” value is on record as “completely dissolved”.
On to `CCOc1ccccc1C1=N[N+](=CC=C2N(CC)c3c(ccc4ccccc34)C2(C)C)[Co-2]2([O]1)[O]C(c1ccccc1OCC)=N[N+]2=CC=C1N(CC)c2c(ccc3ccccc23)C1(C)C` (centres unmarked) [Compound A-88], for which, in data set [1], the “solubility … of 0.7% by weight” value is reported as “completely dissolved” and the “solubility … of 1.0% by weight” value was “completely dissolved”.
Turning to `CCN1C(=CC=[N+]2N=C(c3ccccc3OC)[O][Co-2]23[O]C(c2ccccc2OC)=N[N+]3=CC=C2N(CC)c3ccc(OC)cc3C2(C)Cc2ccccc2)C(C)(Cc2ccccc2)c2cc(OC)ccc21` (centres unmarked) [Compound A-150], in data set [1], the “solubility … of 0.7% by weight” value is “completely dissolved” and the “solubility … of 1.0% by weight” value was “completely dissolved”.
For `CCN1C(=CC=[N+]2N=C(c3ccc(C(=O)OC)cc3)[O][Co-2]23[O]C(c2ccc(C(=O)OC)cc2)=N[N+]3=CC=C2N(CC)c3ccc(OC)cc3C2(C)Cc2cccc(F)c2)C(C)(Cc2cccc(F)c2)c2cc(OC)ccc21` (centres unmarked) [Compound A-152], in data set [1], the “solubility … of 0.7% by weight” value is given as “completely dissolved” and the “solubility … of 1.0% by weight” value is “completely dissolved”.
As to `CCN(CC)C(=O)c1ccc(C2=N[N+](=CC=C3N(CC)c4ccc(OC)cc4C3(C)Cc3ccccc3)[Co-2]3([O]2)[O]C(c2ccc(C(=O)N(CC)CC)cc2)=N[N+]3=CC=C2N(CC)c3ccc(OC)cc3C2(C)Cc2ccccc2)cc1` (centres unmarked) [Compound A-159], in data set [1], the “solubility … of 0.7% by weight” value is “completely dissolved” and the “solubility … of 1.0% by weight” value is given as “completely dissolved”.
For `CCN1C(=CC=[N+]2N=C(c3ccc(C(=O)OC)cc3)[O][Co-2]23[O]C(c2ccc(C(=O)OC)cc2)=N[N+]3=CC=C2N(CC)c3ccc(OC)cc3C2(C)Cc2ccccc2)C(C)(Cc2ccccc2)c2cc(OC)ccc21` (centres unmarked) [Compound A-186], in data set [1], the “solubility … of 0.7% by weight” value was “completely dissolved” and the “solubility … of 1.0% by weight” value is given as “completely dissolved”.
For `CCCN(CCC)S(=O)(=O)c1ccc(C2=N[N+](=CC=C3N(CC)c4ccc(OC)cc4C3(C)Cc3ccccc3)[Co-2]3([O]2)[O]C(c2ccc(S(=O)(=O)N(CCC)CCC)cc2)=N[N+]3=CC=C2N(CC)c3ccc(OC)cc3C2(C)Cc2ccccc2)cc1` (centres unmarked) [Compound A-211], in data set [1], the “solubility … of 0.7% by weight” value is reported as “completely dissolved” and the “solubility … of 1.0% by weight” value is reported as “completely dissolved”.
With `CCN1C(=CC=[N+]2N=C(c3cccc(OCCOC)c3)[O][Co-2]23[O]C(c2cccc(OCCOC)c2)=N[N+]3=CC=C2N(CC)c3ccc(OC)cc3C2(C)Cc2ccccc2)C(C)(Cc2ccccc2)c2cc(OC)ccc21` (centres unmarked) [Compound A-212], in data set [1], the “solubility … of 0.7% by weight” value is given as “completely dissolved” and the “solubility … of 1.0% by weight” value was “completely dissolved”.
With `CN(C)c1ccc(C2=N/[N+](=C/c3ccccn3)[Co-2]3([O]2)[O]C(c2ccc(N(C)C)cc2)=N/[N+]3=C/c2ccccn2)cc1` [Compound B-4, reference compound], in data set [1], the “solubility … of 0.7% by weight” value was “the amount of insolubles was large” and the “solubility … of 1.0% by weight” value was “the amount of insolubles was large”.
`[CH2-][N+]1=C\c2n(C)c3ccccc3[n+]2[Co-3]23([O]C(c4ccc(N(C)C)cc4)=N[N+]2=Cc2n(C)c4ccccc4[n+]23)[O]/C(c2ccc(N(C)C)cc2)=N\1` [Compound B-5, reference compound]: in data set [1], the “solubility … of 0.7% by weight” value is “the amount of insolubles was large” and the “solubility … of 1.0% by weight” value is recorded as “the amount of insolubles was large”.
Consider `[CH2-][N+](=C\C=C\c1ccc(N(CC)CC)cc1)/N=C(\[O][Co-]1[O]C(c2c(C)cc(C)cc2C)=N/[N+]1=C/C=C/c1ccc(N(CC)CC)cc1)c1c(C)cc(C)cc1C` [Compound B-6, reference compound], for which, in data set [1], the “solubility … of 0.7% by weight” value is recorded as “the amount of insolubles was large” and the “solubility … of 1.0% by weight” value was “the amount of insolubles was large”.
